Laboratory results as given in patent US12631644B2, “Biomarker panel targeted to diseases due to multifactorial ontology of glycocalyx disruption” (Arterez, Inc., priority 2019, dated 2026).

Key:
[1] = system: inflammation and plaque; assay: Average disease scores (aortic sinus histology) in high-fat diet mice, Example 1; format: in vivo, mouse; details: FIG. 9; per group and time point; gavage 150 μmol/kg
Procedure: For a pilot study, forty-eight 10-week old male C57/Bl6 mice were obtained from Jackson Laboratories. Three mice were raised from 6 weeks on a regular diet and served as controls, and the remaining 45 were raised on a 60% fat diet (D12451, DIO series diet, Opensource Diets). For a bacterial dosage test, sixteen 10-week old male C57/Bl6 mice were divided into four treatment groups and maintained on a normal diet.
3,3′,4,4′-Tetrachlorobiphenyl (PCB-77) was obtained from Neosyn Laboratories. 100 mg of the dry chemical was suspended in 15.22 ml of corn oil to deliver 150 μmol/kg in 0.2 ml per mouse. […]
The hearts were prepared as frozen sections: they were mounted in blocks, and 10 μm-thick sections were cut through the aortic valve, to yield 30 sections per mouse. […] Multiple 10-μm sections at the level of the aortic sinus were analyzed for the presence of Oil Red O lipid staining, plaque size, amount of fibrous tissue, and inflammation. The percentage of the lumen occupied by the first three features was calculated using Image Pro Plus. […] The level of inflammation in each section was scored on the following scale: 0=no inflammatory cells observed, 1=few macrophages with no giant cells, 2=foam cells present, 3=foam cells with cholesterol, 4=foam cells, giant cells, and cholesterol present. […]

[2] = target: T1, TNF-α (Homo sapiens, UniProt P01375); details: humans; 2009 Atherosclerosis 202:296-303; cited from earlier work
T1 construct: host or cells: human subjects (in vivo, endogenous TNF-α)
T1 sequence (P01375 77-233 limits assumed): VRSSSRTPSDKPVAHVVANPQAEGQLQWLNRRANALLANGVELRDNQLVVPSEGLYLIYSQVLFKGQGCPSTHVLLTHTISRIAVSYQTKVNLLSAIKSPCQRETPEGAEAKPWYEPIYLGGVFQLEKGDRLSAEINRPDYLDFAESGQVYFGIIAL

Clc1ccc(-c2ccc(Cl)c(Cl)c2)cc1Cl [PCB77, 3,3′,4,4′-Tetrachlorobiphenyl]
risk factor for producing inflammation and plaque (average disease scores) [1]: most significant risk factor to producing inflammation and plaque

etanercept
shedding of glycocalyx constituents, coagulation activation, vessel function [2]: reduces the shedding of glycocalyx constituents, coagulation activation, and functional vessel function
